Reference: patent US8952024B2, “Herbicidal pyrimidone derivatives” (E I du Pont de Nemours and Company, priority 2009, dated 2015)

Experiments:
Format in all cases: in vivo
[1] = test system: Italian ryegrass (Lolium multiflorum); experiment: Test B pre-/postemergence plant response; details: for Ryegrass, Italian plant response rating (0 to 100 scale): 62 g ai/ha, 0 is no effect, 13 to 15 days
Outline: (§1)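 Seeds sown in loam–sand blend were treated preemergence, and plants at 2–18 cm (1- to 4-leaf stage) in peat-based medium were treated postemergence; compounds were formulated in non-phytotoxic solvent with surfactant. After 13–15 days in greenhouse, response was visually rated against controls, 0 (no effect) to 100 (complete control).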

[2] = test system: Surinam grass (Brachiaria decumbens); experiment: Test B pre-/postemergence plant response; details: for Surinam Grass plant response rating (0 to 100 scale): 62 g ai/ha, 0 is no effect, 13 to 15 days
Outline: as §1

[3] = test system: bermudagrass (Cynodon dactylon); experiment: Test B pre-/postemergence plant response; details: for Bermudagrass plant response rating (0 to 100 scale): 62 g ai/ha, 0 is no effect, 13 to 15 days
Outline: as §1

[4] = test system: blackgrass (Alopecurus myosuroides); experiment: Test B pre-/postemergence plant response; details: for Blackgrass plant response rating (0 to 100 scale): 62 g ai/ha, 0 is no effect, 13 to 15 days
Outline: as §1

corn (Zea mays) = experiment: Test B pre-/postemergence plant response; details: for Corn plant response rating (0 to 100 scale): 62 g ai/ha, 0 is no effect, 13 to 15 days
Outline: as §1

[5] = test system: johnsongrass (Sorghum halepense); experiment: Test B pre-/postemergence plant response; details: for Johnsongrass plant response rating (0 to 100 scale): 62 g ai/ha, 0 is no effect, 13 to 15 days
Outline: as §1

[6] = test system: lambsquarters (Chenopodium album); experiment: Test B pre-/postemergence plant response; details: for Lambsquarters plant response rating (0 to 100 scale): 62 g ai/ha, 0 is no effect, 13 to 15 days
Outline: as §1

[7] = test system: large crabgrass (Digitaria sanguinalis); experiment: Test B pre-/postemergence plant response; details: for Crabgrass, Large plant response rating (0 to 100 scale): 62 g ai/ha, 0 is no effect, 13 to 15 days
Outline: as §1

[8] = test system: ragweed (common ragweed, Ambrosia elatior); experiment: Test B pre-/postemergence plant response; details: for Ragweed plant response rating (0 to 100 scale): 62 g ai/ha, 0 is no effect, 13 to 15 days
Outline: as §1

soybean (Glycine max) = experiment: Test B pre-/postemergence plant response; details: for Soybean plant response rating (0 to 100 scale): 62 g ai/ha, 0 is no effect, 13 to 15 days
Outline: as §1

[9] = test system: velvetleaf (Abutilon theophrasti); experiment: Test B pre-/postemergence plant response; details: for Velvetleaf plant response rating (0 to 100 scale): 62 g ai/ha, 0 is no effect, 13 to 15 days
Outline: as §1

wild oat (Avena fatua) = experiment: Test B pre-/postemergence plant response; details: for Oat, Wild plant response rating (0 to 100 scale): 62 g ai/ha, 0 is no effect, 13 to 15 days
Outline: as §1

[10] = test system: woolly cupgrass (Eriochloa villosa); experiment: Test B pre-/postemergence plant response; details: for Cupgrass, Woolly plant response rating (0 to 100 scale): 62 g ai/ha, 0 is no effect, 13 to 15 days
Outline: as §1

[11] = test system: yellow nutsedge (Cyperus esculentus); experiment: Test B pre-/postemergence plant response; details: for Nutsedge, Yellow plant response rating (0 to 100 scale): 62 g ai/ha, 0 is no effect, 13 to 15 days
Outline: as §1

[12] = test system: canarygrass (Phalaris minor); experiment: Test B postemergence plant response; details: for Canarygrass plant response rating (0 to 100 scale): 62 g ai/ha, 0 is no effect, 13 to 15 days
Outline: (§2)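 Plants at the 1- to 4-leaf stage (2 to 18 cm tall), grown in pots of peat moss/vermiculite medium with wetting agent and starter nutrients, received postemergence applications of test chemicals. After 13 to 15 days in a greenhouse, injury was rated visually against untreated controls on a 0 (no effect) to 100 (complete control) scale.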

[13] = test system: chickweed (Stellaria media); experiment: Test B postemergence plant response; details: for Chickweed plant response rating (0 to 100 scale): 62 g ai/ha, 0 is no effect, 13 to 15 days
Outline: as §2

[14] = test system: windgrass (Apera spica-venti); experiment: Test B postemergence plant response; details: for Windgrass plant response rating (0 to 100 scale): 62 g ai/ha, 0 is no effect, 13 to 15 days
Outline: as §2

[15] = test system: winter barley (Hordeum vulgare); experiment: Test B postemergence plant response; details: for Barley plant response rating (0 to 100 scale): 62 g ai/ha, 0 is no effect, 13 to 15 days
Outline: as §2

[16] = 31 g ai/ha, postemergence, scale 0 to 100, 0 is no effect, 100 is complete control
[17] = postemergence, 100 is complete control
[18] = Postemergence, 250 g ai/ha, scale 0 to 100 (0 no effect, 100 complete control)
[19] = Postemergence, 125 g ai/ha, visual rating after 13 to 15 days, scale 0 (no effect) to 100 (complete control)

O=C1CCCC(O)=C1C(=O)c1cnc(C2CC2)n(-c2ccccc2)c1=O [Compound 87]
Plant response rating, Ryegrass, Italian [1, 16]: 5 | Ryegrass, Italian plant response rating (0 to 100 scale) [1, 17]: 10 | Plant response rating, Ryegrass, Italian [1, 18]: 60 | Plant response rating, Surinam Grass [2, 16]: 75 | Surinam Grass plant response rating (0 to 100 scale) [2, 17]: 75 | Plant response rating, Surinam Grass [2, 18]: 85 | Plant response rating, Bermudagrass [3, 16]: 90 | Bermudagrass plant response rating (0 to 100 scale) [3, 17]: 90 | Plant response rating, Bermudagrass [3, 19]: 98 | Plant response rating, Bermudagrass [3, 18]: 100 | Plant response rating, Blackgrass [4, 16]: 5 | Blackgrass plant response rating (0 to 100 scale) [4, 17]: 5 | Plant response rating, Blackgrass [4, 19]: 20 | Plant response rating, Blackgrass [4, 18]: 40 | Plant response rating, Corn (corn (Zea mays); [16]): 20 | Corn plant response rating (0 to 100 scale) (corn (Zea mays); [17]): 55 | Plant response rating, Corn (corn (Zea mays); [19]): 75 | Plant response rating, Corn (corn (Zea mays); [18]): 75 | Plant response rating, Johnsongrass [5, 16]: 5 | Johnsongrass plant response rating (0 to 100 scale) [5, 17]: 25 | Plant response rating, Johnsongrass [5, 18]: 45 | Plant response rating, Lambsquarters [6, 16]: 98 | Lambsquarters plant response rating (0 to 100 scale) [6, 17]: 98 | Plant response rating, Lambsquarters [6, 18]: 100 | Plant response rating, Crabgrass, Large [7, 16]: 85 | Crabgrass, Large plant response rating (0 to 100 scale) [7, 17]: 85 | Plant response rating, Crabgrass, Large [7, 19]: 95 | Plant response rating, Crabgrass, Large [7, 18]: 98 | Plant response rating, Ragweed [8, 16]: 85 | Ragweed plant response rating (0 to 100 scale) [8, 17]: 95 | Plant response rating, Ragweed [8, 18]: 98 | Plant response rating, Soybean (soybean (Glycine max); [16]): 98 | Soybean plant response rating (0 to 100 scale) (soybean (Glycine max); [17]): 98 | Plant response rating, Soybean (soybean (Glycine max); [18]): 100 | Plant response rating, Velvetleaf [9, 16]: 100 | Velvetleaf plant response rating (0 to 100 scale) [9, 17]: 100 | Plant response rating, Velvetleaf [9, 18]: 100 | Plant response rating, Oat, Wild (wild oat (Avena fatua); [16]): 50 | Oat, Wild plant response rating (0 to 100 scale) (wild oat (Avena fatua); [17]): 60 | Plant response rating, Oat, Wild (wild oat (Avena fatua); [18]): 90 | Plant response rating, Cupgrass, Woolly [10, 16]: 50 | Cupgrass, Woolly plant response rating (0 to 100 scale) [10, 17]: 75 | Plant response rating, Cupgrass, Woolly [10, 19]: 75 | Plant response rating, Cupgrass, Woolly [10, 18]: 90 | Plant response rating, Nutsedge, Yellow [11, 16]: 10 | Nutsedge, Yellow plant response rating (0 to 100 scale) [11, 17]: 60 | Plant response rating, Nutsedge, Yellow [11, 18]: 75 | Plant response rating, Canarygrass [12, 16]: 0 | Canarygrass plant response rating (0 to 100 scale) [12, 17]: 30 | Plant response rating, Canarygrass [12, 19]: 35 | Plant response rating, Canarygrass [12, 18]: 35 | Plant response rating, Chickweed [13, 16]: 100 | Chickweed plant response rating (0 to 100 scale) [13, 17]: 100 | Plant response rating, Chickweed [13, 19]: 100 | Plant response rating, Chickweed [13, 18]: 100 | Plant response rating, Windgrass [14, 16]: 55 | Windgrass plant response rating (0 to 100 scale) [14, 17]: 60 | Plant response rating, Windgrass [14, 18]: 95 | Plant response rating, Barley [15, 16]: 0 | Barley plant response rating (0 to 100 scale) [15, 17]: 0 | Plant response rating, Barley [15, 19]: 0 | Plant response rating, Barley [15, 18]: 5

O=C1CCCC(O)=C1C(=O)c1cnc(-c2ccccc2)n(C2CC2)c1=O [Compound 90]
Plant response rating, Ryegrass, Italian [1, 16]: 0 | Ryegrass, Italian plant response rating (0 to 100 scale) [1, 17]: 0 | Plant response rating, Ryegrass, Italian [1, 18]: 0 | Plant response rating, Surinam Grass [2, 16]: 65 | Surinam Grass plant response rating (0 to 100 scale) [2, 17]: 65 | Plant response rating, Surinam Grass [2, 18]: 75 | Plant response rating, Bermudagrass [3, 16]: 70 | Bermudagrass plant response rating (0 to 100 scale) [3, 17]: 80 | Plant response rating, Bermudagrass [3, 19]: 85 | Plant response rating, Bermudagrass [3, 18]: 85 | Plant response rating, Blackgrass [4, 16]: 5 | Blackgrass plant response rating (0 to 100 scale) [4, 17]: 5 | Plant response rating, Blackgrass [4, 19]: 5 | Plant response rating, Blackgrass [4, 18]: 30 | Plant response rating, Corn (corn (Zea mays); [16]): 15 | Corn plant response rating (0 to 100 scale) (corn (Zea mays); [17]): 25 | Plant response rating, Corn (corn (Zea mays); [19]): 45 | Plant response rating, Corn (corn (Zea mays); [18]): 75 | Plant response rating, Johnsongrass [5, 16]: 10 | Johnsongrass plant response rating (0 to 100 scale) [5, 17]: 25 | Plant response rating, Johnsongrass [5, 18]: 65 | Plant response rating, Lambsquarters [6, 16]: 85 | Lambsquarters plant response rating (0 to 100 scale) [6, 17]: 95 | Plant response rating, Lambsquarters [6, 18]: 100 | Plant response rating, Crabgrass, Large [7, 16]: 65 | Crabgrass, Large plant response rating (0 to 100 scale) [7, 17]: 75 | Plant response rating, Crabgrass, Large [7, 19]: 75 | Plant response rating, Crabgrass, Large [7, 18]: 80 | Plant response rating, Ragweed [8, 16]: 60 | Ragweed plant response rating (0 to 100 scale) [8, 17]: 75 | Plant response rating, Ragweed [8, 18]: 95 | Plant response rating, Soybean (soybean (Glycine max); [16]): 98 | Soybean plant response rating (0 to 100 scale) (soybean (Glycine max); [17]): 98 | Plant response rating, Soybean (soybean (Glycine max); [18]): 100 | Plant response rating, Velvetleaf [9, 16]: 85 | Velvetleaf plant response rating (0 to 100 scale) [9, 17]: 98 | Plant response rating, Velvetleaf [9, 18]: 100 | Plant response rating, Oat, Wild (wild oat (Avena fatua); [16]): 0 | Oat, Wild plant response rating (0 to 100 scale) (wild oat (Avena fatua); [17]): 5 | Plant response rating, Oat, Wild (wild oat (Avena fatua); [18]): 20 | Plant response rating, Cupgrass, Woolly [10, 16]: 45 | Cupgrass, Woolly plant response rating (0 to 100 scale) [10, 17]: 45 | Plant response rating, Cupgrass, Woolly [10, 19]: 50 | Plant response rating, Cupgrass, Woolly [10, 18]: 55 | Plant response rating, Nutsedge, Yellow [11, 16]: 60 | Nutsedge, Yellow plant response rating (0 to 100 scale) [11, 17]: 65 | Plant response rating, Nutsedge, Yellow [11, 18]: 75 | Plant response rating, Canarygrass [12, 16]: 5 | Canarygrass plant response rating (0 to 100 scale) [12, 17]: 10 | Plant response rating, Canarygrass [12, 19]: 30 | Plant response rating, Canarygrass [12, 18]: 30 | Plant response rating, Chickweed [13, 16]: 70 | Chickweed plant response rating (0 to 100 scale) [13, 17]: 80 | Plant response rating, Chickweed [13, 19]: 85 | Plant response rating, Chickweed [13, 18]: 90 | Plant response rating, Windgrass [14, 16]: 0 | Windgrass plant response rating (0 to 100 scale) [14, 17]: 5 | Plant response rating, Windgrass [14, 18]: 50 | Plant response rating, Barley [15, 16]: 0 | Barley plant response rating (0 to 100 scale) [15, 17]: 5 | Plant response rating, Barley [15, 19]: 10 | Plant response rating, Barley [15, 18]: 20
